Laboratory results as given in patent US12077503B2, “Substituted cyclic amides and their use as herbicides” (FMC CORPORATION, priority 2015, dated 2024).
Like-named read-outs stand apart in the source and are kept apart here.

Assays:
Type in all cases: in vivo
[1] = test system: barnyardgrass (Echinochloa crus-galli); experiment: Test A postemergence; details: Echinochloa crus-galli, post-emergence, 240 h, read-out: Plant response rating, Barnyardgrass; for pest or weed control at 125 g/ha: 125 g ai/ha, Postemergence, visual injury after approximately 10 d, 0 to 100 scale where 0 is no effect and 100 is complete control
Summary of the method: (§1)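 Ratings of 0 (no effect) to 100 (complete control) come from visual comparison with untreated controls roughly 10 d after treatment. Test chemicals, formulated in a non-phytotoxic solvent mixture with surfactant, were applied either as a preemergence directed soil spray on seeded soil or postemergence to one- to two-leaf plants 2 to 10 cm tall.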

[2] = test system: ragweed (common ragweed, Ambrosia elatior); experiment: Test A postemergence; details: Ambrosia artemisiifolia, post-emergence, 240 h; for pest or weed control at 125 g/ha: 125 g ai/ha
Summary of the method: as §1

[3] = test system: pigweed (Amaranthus retroflexus); experiment: Test A postemergence; details: Amaranthus retroflexus, post-emergence, 240 h; for pest or weed control at 125 g/ha: 125 g ai/ha
Summary of the method: as §1

[4] = test system: Galium (catchweed bedstraw, Galium aparine); experiment: Test A postemergence; details: Galium, post-emergence, 240 h; for pest or weed control at 125 g/ha: 125 g ai/ha
Summary of the method: as §1

[5] = test system: giant foxtail (Setaria faberii); experiment: Test A postemergence; details: Setaria faberi, post-emergence, 240 h; for pest or weed control at 125 g/ha: 125 g ai/ha
Summary of the method: as §1

[6] = test system: Kochia (Kochia scoparia); experiment: Test A postemergence; details: Bassia scoparia, post-emergence, 240 h; for pest or weed control at 125 g/ha: 125 g ai/ha
Summary of the method: as §1

[7] = test system: corn (Zea mays); experiment: Test A postemergence; details: Zea mays, post-emergence, 240 h; for Corn plant response rating (crop injury, 0 = no effect, 100 = complete kill) at 125 g/ha: 125 g ai/ha, Postemergence, visual injury after approximately 10 d, 0 to 100 scale where 0 is no effect and 100 is complete control
Summary of the method: as §1

[8] = test system: wheat (Triticum aestivum); experiment: Test A postemergence; details: Triticum aestivum, post-emergence, 240 h; for plant injury at 125 g/ha: 125 g ai/ha
Summary of the method: as §1

[9] = test system: ryegrass, Italian (Italian ryegrass, Lolium multiflorum); experiment: Test A postemergence; details: Lolium multiflorum, post-emergence, 240 h; for pest or weed control at 125 g/ha: 125 g ai/ha
Summary of the method: as §1

[10] = test system: barnyardgrass (Echinochloa crus-galli); experiment: Test A preemergence; details: Echinochloa crus-galli, pre-emergence, 240 h; for pest or weed control at 125 g/ha: 125 g ai/ha; for pest or weed control at 500 g/ha: 500 g ai/ha, visual injury rating about 10 d after treatment, 0 to 100 scale (0 no effect, 100 complete control)
Summary of the method: as §1

[11] = test system: ragweed (common ragweed, Ambrosia elatior); experiment: Test A preemergence; details: Ambrosia artemisiifolia, pre-emergence, 240 h; for pest or weed control at 500 g/ha: 500 g ai/ha, preemergence, visual injury rating about 10 d after treatment, 0 to 100 scale (0 no effect, 100 complete control), read-out: Ragweed plant response rating
Summary of the method: as §1

[12] = test system: pigweed (Amaranthus retroflexus); experiment: Test A preemergence; details: Amaranthus retroflexus, pre-emergence, 240 h; for pest or weed control at 125 g/ha: 125 g ai/ha; for pest or weed control at 500 g/ha: 500 g ai/ha, visual injury rating about 10 d after treatment, 0 to 100 scale (0 no effect, 100 complete control)
[13] = test system: giant foxtail (Setaria faberii); experiment: Test A preemergence; details: Setaria faberi, pre-emergence, 240 h; for pest or weed control at 125 g/ha: 125 g ai/ha; for pest or weed control at 500 g/ha: 500 g ai/ha, visual injury rating about 10 d after treatment, 0 to 100 scale (0 no effect, 100 complete control)
Summary of the method: as §1

[14] = test system: Kochia (Kochia scoparia); experiment: Test A preemergence; details: Bassia scoparia, pre-emergence, 240 h; for pest or weed control at 125 g/ha: 125 g ai/ha; for pest or weed control at 500 g/ha: 500 g ai/ha, visual injury rating about 10 d after treatment, 0 to 100 scale (0 no effect, 100 complete control)
Summary of the method: as §1

[15] = test system: ryegrass, Italian (Italian ryegrass, Lolium multiflorum); experiment: Test A preemergence; details: Lolium multiflorum, pre-emergence, 240 h; for pest or weed control at 500 g/ha: 500 g ai/ha, preemergence, visual injury rating about 10 d after treatment, 0 to 100 scale (0 no effect, 100 complete control), read-out: Ryegrass, Italian plant response rating
Summary of the method: as §1

[16] = 500 g ai/ha, postemergence, visual injury, 0 to 100 scale (0 no effect, 100 complete control), approx. 10 d
[17] = preemergence, read-out: Barnyardgrass plant response rating
[18] = preemergence, read-out: Pigweed plant response rating
[19] = preemergence, read-out: Foxtail, Giant plant response rating
[20] = preemergence, read-out: Kochia plant response rating

SMILES: CC(C)COc1cccc([C@H]2CN(C)C(=O)[C@@H]2C(=O)Nc2ccc(F)cc2F)c1 [Compound 1030]
- pest or weed control at 125 g/ha [1]: 70%
- pest or weed control at 500 g/ha [1, 16]: 90%
- pest or weed control at 125 g/ha ([2]; postemergence, visual injury on 0 to 100 scale (0 no effect, 100 complete control), approx. 10 d, read-out: Ragweed plant response rating): 0%
- pest or weed control at 500 g/ha ([2]; 500 g ai/ha, postemergence, visual injury, 0 to 100 scale (0 no effect, 100 complete control), approx. 10 d, read-out: Plant response rating, Ragweed): 0%
- pest or weed control at 125 g/ha ([3]; postemergence, visual injury on 0 to 100 scale (0 no effect, 100 complete control), approx. 10 d, read-out: Pigweed plant response rating): 0%
- pest or weed control at 500 g/ha ([3]; 500 g ai/ha, postemergence, visual injury, 0 to 100 scale (0 no effect, 100 complete control), approx. 10 d, read-out: Plant response rating, Pigweed): 0%
- pest or weed control at 125 g/ha ([4]; postemergence, visual injury on 0 to 100 scale (0 no effect, 100 complete control), approx. 10 d, read-out: Galium plant response rating): 40%
- pest or weed control at 500 g/ha ([4]; 500 g ai/ha, postemergence, visual injury, 0 to 100 scale (0 no effect, 100 complete control), approx. 10 d, read-out: Plant response rating, Galium): 60%
- pest or weed control at 125 g/ha ([5]; postemergence, visual injury on 0 to 100 scale (0 no effect, 100 complete control), approx. 10 d, read-out: Foxtail, Giant plant response rating): 70%
- pest or weed control at 500 g/ha ([5]; 500 g ai/ha, postemergence, visual injury, 0 to 100 scale (0 no effect, 100 complete control), approx. 10 d, read-out: Plant response rating, Foxtail, Giant): 90%
- pest or weed control at 125 g/ha ([6]; postemergence, visual injury on 0 to 100 scale (0 no effect, 100 complete control), approx. 10 d, read-out: Kochia plant response rating): 0%
- pest or weed control at 500 g/ha ([6]; 500 g ai/ha, postemergence, visual injury, 0 to 100 scale (0 no effect, 100 complete control), approx. 10 d, read-out: Plant response rating, Kochia): 0%
- Corn plant response rating (crop injury, 0 = no effect, 100 = complete kill) at 125 g/ha [7]: 20%
- Corn plant response rating (crop injury, 0 = no effect, 100 = complete kill) at 500 g/ha [7, 16]: 50%
- plant injury at 125 g/ha ([8]; postemergence, visual injury on 0 to 100 scale (0 no effect, 100 complete control), approx. 10 d, read-out: Wheat plant response rating): 30%
- plant injury at 500 g/ha ([8]; 500 g ai/ha, postemergence, visual injury, 0 to 100 scale (0 no effect, 100 complete control), approx. 10 d, read-out: Plant response rating, Wheat): 60%
- pest or weed control at 125 g/ha ([9]; postemergence, visual injury on 0 to 100 scale (0 no effect, 100 complete control), approx. 10 d, read-out: Ryegrass, Italian plant response rating): 0%
- pest or weed control at 500 g/ha ([9]; 500 g ai/ha, postemergence, visual injury, 0 to 100 scale (0 no effect, 100 complete control), approx. 10 d, read-out: Plant response rating, Ryegrass, Italian): 0%
- pest or weed control at 125 g/ha ([10]; Preemergence, visual injury rating after approximately 10 d, read-out: Barnyardgrass plant response rating (0 to 100 scale, 0 is no effect, 100 is complete control)): 70%
- pest or weed control at 500 g/ha [10, 17]: 90%
- pest or weed control at 125 g/ha ([11]; 125 g ai/ha, Preemergence, visual injury rating after approximately 10 d, read-out: Ragweed plant response rating (0 to 100 scale, 0 is no effect, 100 is complete control)): 0%
- pest or weed control at 500 g/ha [11]: 0%
- pest or weed control at 125 g/ha ([12]; Preemergence, visual injury rating after approximately 10 d, read-out: Pigweed plant response rating (0 to 100 scale, 0 is no effect, 100 is complete control)): 0%
- pest or weed control at 500 g/ha [12, 18]: 0%
- pest or weed control at 125 g/ha ([13]; Preemergence, visual injury rating after approximately 10 d, read-out: Foxtail, Giant plant response rating (0 to 100 scale, 0 is no effect, 100 is complete control)): 90%
- pest or weed control at 500 g/ha [13, 19]: 90%
- pest or weed control at 125 g/ha ([14]; Preemergence, visual injury rating after approximately 10 d, read-out: Kochia plant response rating (0 to 100 scale, 0 is no effect, 100 is complete control)): 0%
- pest or weed control at 500 g/ha [14, 20]: 70%
- pest or weed control at 125 g/ha ([15]; 125 g ai/ha, Preemergence, visual injury rating after approximately 10 d, read-out: Ryegrass, Italian plant response rating (0 to 100 scale, 0 is no effect, 100 is complete control)): 70%
- pest or weed control at 500 g/ha [15]: 70%

SMILES: CN1C[C@H](c2ccc(C(F)(F)F)cc2)[C@@H](C(=O)Nc2ccc(F)cc2Br)C1=O [Compound 934]
- pest or weed control at 125 g/ha [1]: 60%
- pest or weed control at 125 g/ha ([2]; Postemergence, visual injury after approximately 10 d, 0 to 100 scale where 0 is no effect and 100 is complete control, read-out: Plant response rating, Ragweed): 0%
- pest or weed control at 125 g/ha ([3]; Postemergence, visual injury after approximately 10 d, 0 to 100 scale where 0 is no effect and 100 is complete control, read-out: Plant response rating, Pigweed): 20%
- pest or weed control at 125 g/ha ([4]; Postemergence, visual injury after approximately 10 d, 0 to 100 scale where 0 is no effect and 100 is complete control, read-out: Plant response rating, Galium): 60%
- pest or weed control at 125 g/ha ([5]; Postemergence, visual injury after approximately 10 d, 0 to 100 scale where 0 is no effect and 100 is complete control, read-out: Plant response rating, Foxtail, Giant): 90%
- pest or weed control at 125 g/ha ([6]; Postemergence, visual injury after approximately 10 d, 0 to 100 scale where 0 is no effect and 100 is complete control, read-out: Plant response rating, Kochia): 20%
- Corn plant response rating (crop injury, 0 = no effect, 100 = complete kill) at 125 g/ha [7]: 20%
- plant injury at 125 g/ha ([8]; Postemergence, visual injury after approximately 10 d, 0 to 100 scale where 0 is no effect and 100 is complete control, read-out: Plant response rating, Wheat): 0%
- pest or weed control at 125 g/ha ([9]; Postemergence, visual injury after approximately 10 d, 0 to 100 scale where 0 is no effect and 100 is complete control, read-out: Plant response rating, Ryegrass, Italian): 0%
- pest or weed control at 125 g/ha ([10]; preemergence, 0 to 100 scale where 0 is no effect and 100 is complete control, read-out: Barnyardgrass plant response rating): 70%
- pest or weed control at 500 g/ha [10, 17]: 90%
- pest or weed control at 500 g/ha [11]: 30%
- pest or weed control at 125 g/ha ([12]; preemergence, 0 to 100 scale where 0 is no effect and 100 is complete control, read-out: Pigweed plant response rating): 0%
- pest or weed control at 500 g/ha [12, 18]: 80%
- pest or weed control at 125 g/ha ([13]; preemergence, 0 to 100 scale where 0 is no effect and 100 is complete control, read-out: Foxtail, Giant plant response rating): 90%
- pest or weed control at 500 g/ha [13, 19]: 90%
- pest or weed control at 125 g/ha ([14]; preemergence, 0 to 100 scale where 0 is no effect and 100 is complete control, read-out: Kochia plant response rating): 50%
- pest or weed control at 500 g/ha [14, 20]: 80%
- pest or weed control at 500 g/ha [15]: 60%
